Measured values published in patent US5994629A, “Positive selection” (priority 1991, dated 1999).
Where a name gives a salt, the structure may show the parent alone.

Experiments:
[1] = biological target: β-glucuronidase from E. coli (Escherichia coli, UniProt P05804); assay: Hydrolysis by β-glucuronidase (GUS), HPLC/TLC; type: biochemical; conditions: 50 mM sodium phosphate buffer pH 7.0, 37° C.; HPLC/TLC
Procedure: […] […] This confirms the identity of the product as a conjugate of BA and β-D-glucuronic acid.
[…] The presence of hydrolysis products is then determined using HPLC and TLC.

[2] = tested on: leaf discs of tobacco without (GUS-) introduced β-glucuronidase genes; type: cell-based, Nicotiana tabacum 'Wisconsin 38'; conditions: test compounds at several concentrations up to 250 μM in MSO
[3] = tested on: leaf discs of tobacco with (GUS+) introduced β-glucuronidase genes; type: cell-based, Nicotiana tabacum 'Wisconsin 38'; conditions: test compounds at several concentrations up to 250 μM in MSO

Sequence of β-glucuronidase from E. coli (P05804 whole entry, looked up): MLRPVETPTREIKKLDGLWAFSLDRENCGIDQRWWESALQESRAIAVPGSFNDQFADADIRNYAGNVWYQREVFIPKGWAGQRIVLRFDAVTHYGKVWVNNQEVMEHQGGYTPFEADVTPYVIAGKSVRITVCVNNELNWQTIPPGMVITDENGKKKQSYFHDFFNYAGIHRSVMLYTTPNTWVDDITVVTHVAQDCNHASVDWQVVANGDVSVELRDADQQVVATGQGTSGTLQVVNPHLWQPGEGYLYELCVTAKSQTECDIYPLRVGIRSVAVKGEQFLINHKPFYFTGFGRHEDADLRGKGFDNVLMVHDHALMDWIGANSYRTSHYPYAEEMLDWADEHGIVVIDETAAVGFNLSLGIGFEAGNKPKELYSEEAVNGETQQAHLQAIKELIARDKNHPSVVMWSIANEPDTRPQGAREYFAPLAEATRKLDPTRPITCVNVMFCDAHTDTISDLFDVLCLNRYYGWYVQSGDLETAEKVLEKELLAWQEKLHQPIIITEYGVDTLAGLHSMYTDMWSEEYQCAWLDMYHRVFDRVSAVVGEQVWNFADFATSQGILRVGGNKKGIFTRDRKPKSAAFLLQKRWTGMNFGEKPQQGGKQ

C/C(=C\CNc1ncnc2[nH]cnc12)CO[C@@H]1O[C@H](C(=O)O)[C@@H](O)[C@H](O)[C@H]1O [ZOGN sodium salt, O-β-D-glucopyranuronosylzeatin, sodium salt]
Hydrolysis by β-glucuronidase (GUS), result in words [1]: virtually complete conversion to trans zeatin | Shoot formation, GUS- [2]: + ("+" means shoot formation at concentrations below 250 μM) | Shoot formation, GUS+ [3]: + ("+" means shoot formation at concentrations below 250 μM)
